{"source": "patent US20230129866A1", "about": "(PureTech LYT 100, Inc., priority 2020, published 2023)", "key": {"[1]": {"details": "human, in vivo, po", "text": "Following screening, eligible healthy volunteer subjects were admitted to a single clinical study site and were randomized to 1 of 2 treatment sequences. […] In each period, a standardized breakfast was provided to subjects prior to administration of study drug (to compare the PK profiles in the clinically relevant fed state) and plasma samples were collected over a 48-hour period after dosing for evaluation of PK. Dosing between the 2 periods was separated by a minimum of 7 days. Subjects completed the study upon completion of the 48-hour post-dose assessments following dosing period 2.\nAll capsules were identical in size, shape, and external color."}, "[2]": {"details": "cited from earlier work"}, "[3]": {"details": "200 mg SD-559 (pirfenidone) BID, Huang et al.; in ng/mL; cited from earlier work"}, "[4]": {"details": "cited from earlier work", "remark": "listed apart in the source"}, "LPS-induced plasma TNFα": {"system": "LPS-induced plasma TNFα", "assay": "LPS-induced plasma TNF-α after oral pretreatment in rats", "format": "in vivo, Sprague-Dawley rats", "details": "Mean ± St. Dev., n = 6-8; for Plasma TNFα concentrations 4 hours after LPS: vehicle 693 ± 553; for Plasma TNFα concentrations 1.5 hours after LPS: vehicle 75389 ± 29107", "protocol": "(§1) LPS was diluted with sterile saline to […] and sonicated at 40° C. for 20 minutes to generate a stock solution and stored at 4° C. Each day of use, the stock solution was further diluted to 0.03 mg/mL in sterile saline.\n(§2) Male Sprague-Dawley rats with indwelling femoral and jugular venous catheters (n=6-8 per dose and test article group) were used in this study. […] Sixty minutes after the oral dose, 0.03 mg/kg of LPS in 1 mL/kg saline was infused into the jugular vein.\n(§3) Blood samples were collected from the femoral vein into heparin-coated syringes 15 minutes prior to the LPS infusion (45 minutes after oral doses of test article), 90 minutes after the LPS infusion and 4 hours after the LPS infusion. Plasma was prepared by centrifugation of the blood samples at 14,000 rpm for 10 minutes. Plasma samples were stored at −70 ° C. until analysis."}, "LPS-induced plasma IL-6": {"system": "LPS-induced plasma IL-6", "assay": "LPS-induced plasma IL-6 after oral pretreatment in rats", "format": "in vivo, Sprague-Dawley rats", "details": "Mean ± St. Dev, n = 6-8; for Plasma IL-6 concentrations 4 hours after LPS: vehicle 13989 ± 6125; for Plasma IL-6 concentrations 1.5 hours after LPS: vehicle 40423 ± 8653", "protocol": "as §1, §2, §3"}, "[5]": {"details": "humans, cited from earlier work"}, "[6]": {"details": "rat, in vivo", "experimental": "The original male TK animals received 1000 mg/kg of SD-559 on Day 1 and continued on study. The protocol was amended to add additional TK male animals in Group 6 for Day 1 collection of TK samples at 875 mg/kg.\nBlood samples were collected from 3 subsets of 3 animals/sex on Day 1 and Day 28 at pre-dose, 0.25, 0.5, 1, 2, 4. 8 and 24 hours (hr) post-dose for groups 2 to 6 and from one subset of 3 animals/sex at 0.25 hr post-dose for the vehicle group (group 1). […] Non-compartmental analysis (NCA) of plasma concentration data was conducted using Phoenix® WinNonlin®, version 8.0."}, "[7]": {"details": "Lancaster et al. 2017, frequencies as high as"}, "[8]": {"details": "multinational post-marketing study"}, "[9]": {"details": "single-center retrospective observational study, 351 patients"}, "[10]": {"details": "Pirfenidone @801 mg, Rubino et al."}, "[11]": {"details": "30 mg/kg oral pretreatment 1 hour prior to LPS injection"}, "[12]": {"details": "100 mg/kg oral pretreatment 1 hour prior to LPS injection"}, "[13]": {"details": "300 mg/kg oral pretreatment 1 hour prior to LPS injection"}}, "note": "Like-named read-outs stand apart in the source and are kept apart here.", "data": [{"molecule": "Cc1ccc(=O)n(-c2ccccc2)c1", "note": "[Pirfenidone, 5-methyl-1-phenyl-1H-pyridin-2-one]", "values": [{"measurement": "Tolerability of single doses", "setting": "[1]", "result": "well tolerated"}, {"measurement": "Fatigue frequency (TEAE rate)", "setting": "[2]; [7]", "result": "≤ 52.4", "unit": "per 100PEY"}, {"measurement": "Nausea frequency (TEAE rate)", "setting": "[2]; [7]", "result": "≤ 62.1", "unit": "per 100 PEY"}, {"measurement": "Patients with permanent treatment discontinuation due to adverse drug reactions", "setting": "[2]; PASSPORT long-term observational safety study, Cottin et al. 2018", "result": 28.7, "unit": "%"}, {"measurement": "Treatment discontinuation rate with predominant gastrointestinal side-effects", "setting": "[2]; b281", "result": "> 25", "unit": "%"}, {"measurement": "Patients who had an adverse event", "setting": "[2]; compassionate use program, Raghu & Thickett 2013", "result": 44, "unit": "%"}, {"measurement": "Patients who experienced an adverse event", "setting": "[2]; [8]", "result": "Approximately 73%"}, {"measurement": "Patients with gastrointestinal symptoms", "setting": "[2]; [8]", "result": 38, "unit": "%"}, {"measurement": "Patients with an ADR leading to discontinuation", "setting": "[2]; patients aged <65 years", "result": 7.5, "unit": "%"}, {"measurement": "Patients with an ADR leading to dose modification/interruption", "setting": "[2]; patients aged <65 years", "result": 18.0, "unit": "%"}, {"measurement": "Patients with an ADR leading to discontinuation", "setting": "[2]; patients aged ≥80 years", "result": 20.9, "unit": "%"}, {"measurement": "Patients with an ADR leading to dose modification/interruption", "setting": "[2]; patients aged ≥80 years", "result": 32.7, "unit": "%"}, {"measurement": "Elevations of AST and ALT levels to >3x ULN", "setting": "[2]; phase III trials", "result": 3.2, "unit": "%"}, {"measurement": "Loss of appetite", "setting": "[2]; [9]", "result": 17, "unit": "%"}, {"measurement": "Nausea/vomiting", "setting": "[2]; [9]", "result": 15, "unit": "%"}, {"measurement": "Share of reported AEs that were GI-related", "setting": "[2]; [9]", "result": 75, "unit": "%"}, {"measurement": "observed Cmax", "setting": "[3]", "result": 2305}, {"measurement": "AUC, % Change Fed vs Fasted", "setting": "[4]; [10]", "result": "−15", "unit": "%"}, {"measurement": "Cmax, % Change Fed vs Fasted", "setting": "[4]; [10]", "result": "−49", "unit": "%"}, {"measurement": "Tmax, % Change Fed vs Fasted", "setting": "[4]; [10]", "result": "+500%"}, {"measurement": "Increase in Tmax, fed vs fasted", "setting": "[4]; pirfenidone 801 mg dose, prior study", "result": 500, "unit": "%"}, {"measurement": "Plasma TNFα concentrations 4 hours after LPS", "setting": "LPS-induced plasma TNFα; [11]", "result": "346 ± 83", "unit": "pg/mL"}, {"measurement": "Plasma TNFα concentrations 1.5 hours after LPS", "setting": "LPS-induced plasma TNFα; [11]", "result": "46138 ± 20266", "unit": "pg/mL"}, {"measurement": "Plasma TNFα concentrations 4 hours after LPS", "setting": "LPS-induced plasma TNFα; [12]", "result": "207 ± 92", "unit": "pg/mL"}, {"measurement": "Plasma TNFα concentrations 1.5 hours after LPS", "setting": "LPS-induced plasma TNFα; [12]", "result": "22230 ± 16540", "unit": "pg/mL"}, {"measurement": "Plasma TNFα concentrations 4 hours after LPS", "setting": "LPS-induced plasma TNFα; [13]", "result": "131 ± 32", "unit": "pg/mL"}, {"measurement": "Plasma TNFα concentrations 1.5 hours after LPS", "setting": "LPS-induced plasma TNFα; [13]", "result": "11495 ± 10753", "unit": "pg/mL"}, {"measurement": "Plasma IL-6 concentrations 4 hours after LPS", "setting": "LPS-induced plasma IL-6; [11]", "result": "8886 ± 5321", "unit": "pg/mL"}, {"measurement": "Plasma IL-6 concentrations 1.5 hours after LPS", "setting": "LPS-induced plasma IL-6; [11]", "result": "25173 ± 10651", "unit": "pg/mL"}, {"measurement": "Plasma IL-6 concentrations 4 hours after LPS", "setting": "LPS-induced plasma IL-6; [12]", "result": "4603 ± 2524", "unit": "pg/mL"}, {"measurement": "Plasma IL-6 concentrations 1.5 hours after LPS", "setting": "LPS-induced plasma IL-6; [12]", "result": "26226 ± 8434", "unit": "pg/mL"}, {"measurement": "Plasma IL-6 concentrations 4 hours after LPS", "setting": "LPS-induced plasma IL-6; [13]", "result": "2361 ± 1185", "unit": "pg/mL"}, {"measurement": "Plasma IL-6 concentrations 1.5 hours after LPS", "setting": "LPS-induced plasma IL-6; [13]", "result": "18692 ± 9996", "unit": "pg/mL"}, {"measurement": "Share of recovered drug material excreted as unchanged pirfenidone", "setting": "[5]; urine", "result": "less than 1%"}, {"measurement": "Oral dose excreted in urine", "setting": "[5]", "result": "approximately 80%"}, {"measurement": "Accumulation after multiple dosing for 28 Days", "setting": "[6]", "result": "No accumulation"}]}]}
